# Experiments:
# PPARα = target: T1, PPARα (Homo sapiens, UniProt Q07869); test: PPARα radioligand binding assay (scintillation proximity, GST-PPARα-LBD); details: GST-PPARα-LBD fusion protein, SPA radioligand binding
# T1 construct: PPARα (aa 167 to 469); made in house; host or cells: E. coli BL21 (pLysS)
# T1 sequence (Q07869 167-468 limits assumed): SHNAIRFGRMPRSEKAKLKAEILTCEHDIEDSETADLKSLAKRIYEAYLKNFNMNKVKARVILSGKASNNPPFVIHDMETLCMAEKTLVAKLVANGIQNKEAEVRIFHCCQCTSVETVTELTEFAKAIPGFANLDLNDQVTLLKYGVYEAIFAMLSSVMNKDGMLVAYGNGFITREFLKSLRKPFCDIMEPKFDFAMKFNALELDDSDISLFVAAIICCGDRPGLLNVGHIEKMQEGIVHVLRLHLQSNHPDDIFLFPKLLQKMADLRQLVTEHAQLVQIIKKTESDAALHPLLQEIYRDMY
# Description: (§1) Background information on the performed assays can be found in: Nichols J S et al. “Development of a scintillation proximity assay for peroxisome proliferator-activated receptor gamma ligand binding domain”, (1998) Anal. Biochem. 257:112-119.
# (§2) Full-length cDNA clones for humans PPARδ and PPARα and mouse PPARγ were obtained by RT-PCR from human adipose and mouse liver cRNA, respectively, cloned into plasmid vectors and verified by DNA sequencing. Bacterial and mammalian expression vectors were constructed to produce glutathione-s-transferase (GST) and Gal4 DNA binding domain proteins fused to the ligand binding domains (LBD) of PPARδ (aa 139 to 442), PPARγ (aa 174 to 476) and PPARα (aa 167 to 469). To accomplish this, the portions of the cloned sequences encoding the LBDs were amplified from the full-length clones by PCR and then subcloned into the plasmid vectors. Final clones were verified by DNA sequence analysis.
# (§3) Induction, expression, and purification of GST-LBD fusion proteins were performed in E. coli strain BL21 (pLysS) cells by standard methods (Ref: Current Protocols in Molecular Biology, Wiley Press, edited by Ausubel et al.).
# (§4) Radioligand Binding Assay
# (§5) PPARα receptor binding was assayed in TKE50 (50 mM Tris-HCl, pH 8, 50 mM KCl, 2 mM EDTA, 0.1 mg/ml fatty acid-free BSA and 10 mM DTT). For each 96 well reaction an 140 ng equivalent of GST-PPARα-LBD fusion protein was bound to 10 μg SPA beads (PharmaciaAmersham) in a final volume of 50 μl by shaking. The resulting slurry was incubated for 1 h at RT and centrifuged for 2 min at 1300 g. The supernatant containing unbound protein was removed and the semidry pellet containing the receptor-coated beads was resolved in 50 μl of TKE. […] All binding assays were performed in 96 well plates and the amount of bound ligand measured on a Packard TopCount using OptiPlates (Packard). Nonspecific binding was determined in the presence of 10^−4 M unlabelled compound. […]
# PPARγ = target: T2, PPARγ (Mus musculus, UniProt P37238); test: PPARγ radioligand binding assay (scintillation proximity, GST-PPARγ-LBD); details: GST-PPARγ-LBD fusion protein, SPA radioligand binding
# T2 construct: PPARγ (aa 174 to 476); made in house; host or cells: E. coli BL21 (pLysS)
# T2 sequence (P37238 204-505): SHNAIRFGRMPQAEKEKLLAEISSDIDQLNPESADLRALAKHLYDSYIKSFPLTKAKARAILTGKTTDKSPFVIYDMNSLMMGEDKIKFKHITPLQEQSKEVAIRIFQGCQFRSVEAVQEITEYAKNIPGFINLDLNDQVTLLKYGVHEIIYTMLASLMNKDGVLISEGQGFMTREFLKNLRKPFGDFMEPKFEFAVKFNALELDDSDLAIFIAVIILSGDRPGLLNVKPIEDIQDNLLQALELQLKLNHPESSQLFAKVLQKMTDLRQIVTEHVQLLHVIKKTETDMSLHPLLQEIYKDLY
# Description: as §1, §2, §3, §4
# as §5, with “PPARγ” for “PPARα”, “GST-PPARγ-LBD” for “GST-PPARα-LBD”, “ul” for “μl”
# PPARδ = target: T3, PPARδ (Homo sapiens, UniProt Q03181); test: PPARδ radioligand binding assay (scintillation proximity, GST-PPARδ-LBD); details: GST-PPARδ-LBD fusion protein, SPA radioligand binding
# T3 construct: PPARδ (aa 139 to 442); made in house; host or cells: E. coli BL21 (pLysS)
# T3 sequence (Q03181 139-441 limits assumed): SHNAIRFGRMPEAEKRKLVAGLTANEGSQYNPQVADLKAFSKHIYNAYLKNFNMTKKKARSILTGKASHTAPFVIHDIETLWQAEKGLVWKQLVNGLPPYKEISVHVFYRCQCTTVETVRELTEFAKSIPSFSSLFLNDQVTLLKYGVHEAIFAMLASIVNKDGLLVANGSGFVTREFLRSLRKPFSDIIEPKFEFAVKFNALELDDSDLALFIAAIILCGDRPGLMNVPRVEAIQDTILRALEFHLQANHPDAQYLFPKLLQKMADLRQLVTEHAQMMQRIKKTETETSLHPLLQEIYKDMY
# Description: as §1, §2, §3, §4
# PPARδ receptor binding was assayed in HNM10 (50 mM Hepes, pH 7.4, 10 mM NaCl, 5 mM MgCl2, 0.15 mg/ml fatty acid-free BSA and 15 mM DTT). For each 96 well reaction a 500 ng equivalent of GST-PPARδ-LBD fusion protein and radioligand, e.g. 20000 dpm {2-methyl-4-[4-methyl-2-(4-trifluoromethyl-phenyl)-thiazol-5-yl-ditritiomethylsulfanyl]-phenoxy}-acetic acid, was bound to 10 μg SPA beads (PharmaciaAmersham) in a final volume of 50 μl by shaking. The resulting slurry was incubated for 1 h at RT and centrifuged for 2 min at 1300 g. […] Radioligand was added and the reaction incubated at RT for 1 h and scintillation proximity counting performed in the presence of test compounds was determined. All binding assays were performed in 96 well plates and the amount of bound ligand was measured on a Packard TopCount using OptiPlates (Packard). […]
SMILES,IC50 (PPARα),IC50 (PPARγ),IC50 (PPARδ),melting point
"COC(Cc1cc(OCCc2ccc(-c3ccc(C(F)(F)F)cc3)nc2C)c2ccccc2c1)C(=O)O (racemic) [Example 4, [rac]-2-Methoxy-3-(4-{2-[2-methyl-6-(4-trifluoromethyl-phenyl)-pyridin-3-yl]-ethoxy}-naphthalen-2-yl)-propionic acid]",37 nM,> 10000 nM,295 nM,–
"CCCC(c1ccc(-c2cccc(C(F)(F)F)c2)nc1C)N(C)c1ccc(OCC(=O)O)c2ccccc12 (racemic) [Example 3, [rac]-[4-(Methyl-{1-[2-methyl-6-(3-trifluoromethyl-phenyl)-pyridin-3-yl]-butyl}-amino)-naphthalen-1-yloxy]-acetic acid]",3580 nM,> 10000 nM,65 nM,–
"Cc1nc(-c2ccc(C(F)(F)F)cc2)ccc1C(C)N(C)c1ccc(OCC(=O)O)c2ccccc12 (racemic) [Example 1, [rac]-[4-(Methyl-{1-[2-methyl-6-(4-trifluoromethyl-phenyl)-pyridin-3-yl]-ethyl}-amino)-naphthalen-1-yloxy]-acetic acid]",–,–,–,157 to 158 °C
"Cc1nc(-c2ccc(C(F)(F)F)cc2)ccc1COc1ccc(CCC(=O)O)c2c1CCCC2 [Example 5, 3-{4-[2-Methyl-6-(4-trifluoromethyl-phenyl)-pyridin-3-ylmethoxy]-5,6,7,8-tetrahydro-naphthalen-1-yl}-propionic acid]",716 nM,> 10000 nM,106 nM,–
"CCC(c1ccc(-c2cccc(C(F)(F)F)c2)nc1C)N(C)c1ccc(OCC(=O)O)c2ccccc12 (racemic) [Example 2, [rac]-[4-(Methyl-{1-[2-methyl-6-(3-trifluoromethyl-phenyl)-pyridin-3-yl]-propyl}-amino)-naphthalen-1-yloxy]-acetic acid]",–,–,–,76 to 78 °C

# Source: patent US7495001B2, “Benzannelated derivatives, their manufacture and use as pharmaceutical agents” (Hoffmann-La Roche Inc., priority 2003, dated 2009)
